Reference: ChEMBL document CHEMBL1201862, “PubChem BioAssay data set” (2004)
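Results reflect a 48-hour exposure of cells in 96-well plates to compound at five concentrations. At the GI50, growth is halved.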 The source made the active and inactive calls. Cut-off read from the data, not from the text of the source: active = GI50 up to about 1.1 µM and inactive = higher.

Legend:
Assay in all cases: NCI anticancer screen, dose series, 48 h
[1] = system: SN12C
[2] = system: HCC 2998
[3] = system: MOLT-4
[4] = system: NCI-H460
[5] = system: A549
[6] = system: NCI-H23
[7] = system: BT-549
[8] = system: TK-10
[9] = system: OVCAR-5
[10] = system: MDA-N
[11] = system: T47D
[12] = system: NCI-H522
[13] = system: MDA-MB-435
[14] = system: SNB-75
[15] = system: M14
[16] = system: SF-539
[17] = system: OVCAR-4
[18] = system: NCI/ADR-RES
[19] = system: HL-60
[20] = system: Malme-3M

Measured: GI50

CN(C)C(=O)Oc1ccc(-c2cn3cc(NC(=O)c4ccccc4)ccc3n2)cc1
inactive: [1] > 100 µM | [2] 52 µM | [3] 17.2 µM | [4] 73.3 µM | [5] 83.4 µM | [6] > 100 µM | [7] 80.4 µM | [8] > 100 µM | [9] > 100 µM | [10] > 100 µM | [11] 21.6 µM | [12] 26.4 µM | [13] 85.7 µM | [14] 86.1 µM | [15] > 100 µM | [16] > 100 µM | [17] 55 µM | [18] > 100 µM

CN1c2ccccc2S(=O)(=O)n2c(COc3ccc(Cl)cc3)nnc21
inactive: [19] 91 µM | [1] > 100 µM | [2] > 100 µM | [3] > 100 µM | [4] > 100 µM | [5] > 100 µM | [6] > 100 µM | [7] 50.6 µM | [8] > 100 µM | [9] > 100 µM | [10] > 100 µM | [11] > 100 µM | [12] 31.3 µM | [13] > 100 µM | [15] > 100 µM | [16] 35.5 µM | [17] 59.3 µM | [18] > 100 µM

O=C1C(Cl)C(c2cccc(Cl)c2)N1c1ccc(-n2c(S)nc3ccccc3c2=O)cc1 (configuration not stated)
inactive: [19] 22.1 µM | [1] 15.8 µM | [2] 14.4 µM | [3] 14 µM | [4] 16.5 µM | [5] 28.2 µM | [6] 19.6 µM | [7] 39.4 µM | [20] 40.2 µM | [8] 29.6 µM | [9] 24.9 µM | [10] 19.1 µM | [11] 31.8 µM | [12] 15.1 µM | [13] 15.7 µM | [15] 19.5 µM | [16] 20 µM | [17] 13.6 µM | [18] 25.8 µM

C[C@@]1(O)C2C3CC4C5C3C1[C@](O)(C42)[C@H]5Br (some centres not stated)
inactive: [19] > 100 µM | [1] > 100 µM | [2] > 100 µM | [3] > 100 µM | [4] > 100 µM | [5] > 100 µM | [6] > 100 µM | [7] > 100 µM | [8] > 100 µM | [9] > 100 µM | [10] > 100 µM | [11] > 100 µM | [12] > 100 µM | [13] > 100 µM | [15] > 100 µM | [16] > 100 µM | [17] > 100 µM | [18] > 100 µM

O=c1c2c3c(sc2nc(S)n1-c1ccccc1)CCCc1ccc([N+](=O)[O-])cc1-3
inactive: [19] 17.6 µM | [1] 37.7 µM | [2] 24.6 µM | [3] 21.3 µM | [4] 36 µM | [5] 42.9 µM | [6] 30.5 µM | [7] 24.8 µM | [20] 35.7 µM | [8] > 100 µM | [9] > 100 µM | [10] 86.5 µM | [11] 17.5 µM | [12] 13.9 µM | [13] 49.5 µM | [15] > 100 µM | [17] 38.9 µM | [18] 25.8 µM

COC(=O)C(C(=O)C(=O)Nc1ccccc1C#N)c1nc2ccc([N+](=O)[O-])cc2nc1O (configuration not stated)
inactive: [1] > 100 µM | [2] > 100 µM | [3] > 100 µM | [4] > 100 µM | [5] > 100 µM | [6] > 100 µM | [7] > 100 µM | [20] > 100 µM | [8] > 100 µM | [9] > 100 µM | [10] > 100 µM | [11] > 100 µM | [12] 53.7 µM | [13] > 100 µM | [14] > 100 µM | [15] > 100 µM | [16] 44.5 µM | [17] 53.3 µM | [18] 92.5 µM

Cc1cc(C)c(S(=O)(=O)N(CCCN)OCCON(CCCN)S(=O)(=O)c2c(C)cc(C)cc2C)c(C)c1
inactive: [1] 7.87 µM | [2] 1.9 µM | [3] 2.64 µM | [4] 2.67 µM | [5] 3.31 µM | [6] 2.59 µM | [7] 7.78 µM | [20] 1.93 µM | [8] 8 µM | [9] 2.24 µM | [10] 2.74 µM | [11] 4.92 µM | [12] 6.53 µM | [13] 3.89 µM | [14] 3.42 µM | [15] 2.75 µM | [16] 2.49 µM | [17] 3.3 µM | [18] 22.1 µM

O=C(O)C(Br)C(Br)c1ccccc1[N+](=O)[O-] (configuration not stated)
inactive: [1] > 100 µM | [2] > 100 µM | [4] > 100 µM | [5] > 100 µM | [6] > 100 µM | [7] > 100 µM | [20] > 100 µM | [8] > 100 µM | [9] > 100 µM | [10] > 100 µM | [11] > 100 µM | [12] 16.3 µM | [13] > 100 µM | [14] > 100 µM | [15] > 100 µM | [16] > 100 µM | [17] > 100 µM | [18] > 100 µM
